This assay concerns the target T1, skeletal myofibrils (Rabbit Psoas), myosin ATPase activity.
T1 construct: Rabbit Psoas Prep 11 (0.25 mg/mL)
The experiment in a line: Skeletal Myofibril ATPase Assay. It is filed as biochemical. To be noted: skeletal myofibrils (Rabbit Psoas 0.25 mg/mL), PK/LDH-coupled NADH absorbance at 340 nm. As to the method:
Overview: Myosin ATPase activity is assessed by using a coupled reaction system, in which ADP generated by the myosin ATPase function is coupled to the disappearance of NADH through the pyruvate kinase/lactate dehydrogenase (PK-LDH) system. Myosin ATPase activity produces ADP, which is used as a substrate for PK to produce pyruvate and regenerate ATP. The pyruvate is then used as a substrate by LDH to oxidize NADH to NAD+. The rate of the reaction is monitored through the time-dependent disappearance of NADH using absorbance at 340 nm. Inhibition of ATPase activity by the assayed compounds is indicated by a reduced rate of NADH loss, relative to vehicle-treated controls, over the experimental time window. To assess the selectivity of the assayed compounds for skeletal myofibrils, the compounds are counter-screened in cardiac myofibrils.
Materials: The following stock solutions and reagents were used in the Skeletal Myofibril ATPase Assay:
Stock Solutions of pCa buffer. Combine PIPES, CaCl2, and EGTA solutions with 70 mL of water. Adjust pH to 7.0 and bring final volume to 100 mL.
Buffer A & Buffer B. Buffers were stored on ice until use.
Skeletal Myofibril ATPase Assay Procedure: BSA, ATP, NADH, PEP, and DTT solutions were thawed at room temperature, then transferred to ice. Pellet-frozen myofibrils were transferred with approximately twice the required volume into a sufficiently large tube and capped. Myofibrils were thawed by rolling in a water bath for approximately 15 min at room temperature and cooled on ice. Buffers A and B were prepared by adjusting volumes as necessary for required number of wells and stored on ice. 0.5 μL of the compounds to be assayed were added into wells. 25 μL of Buffer A was dispensed into the wells, followed by 25 μL of Buffer B. The wells were measured for absorbance at 340 nm, using a kinetic protocol in which the wells are read every 1.5-2 min for 45 min. The slope of the data was approximated by subtracting the minimum absorbance value from the maximum value for each well. This was accomplished either in the SoftMax Pro software or in a spreadsheet program such as Excel. Using GraphPad Prism 8.0, the data was normalized by assigning a value of 100% to the 1% DMSO vehicle wells. Typically, a normalized 0% value was simply assigned to a (Max−Min) value of 0. The normalized data was fit to a Four Parameter Logistic sigmoidal equation, constraining the bottom to be 0 or greater. Compounds of Table 1 to 4 were tested and results of the assay appear in Table 5 herein. A=IC50 is less than or equal to 10 μM; B=IC50 is greater than 10 μM and less than 100 μM; C=IC50 is greater than 100 μM.

The text below walks through data of patent publication US11390606B2, “Pyridazinone compounds and uses thereof” (Edgewise Therapeutics, Inc., priority 2018, dated 2022).

For the compound `CCCOc1ccc(-c2ccc(=O)n(Cc3ccc(Cl)cc3)n2)cc1` [Compound 218, 2-(4-chlorobenzyl)-6-(4-propoxyphenyl)pyridazin-3(2H)-one], the IC50 was below 10 µM.

`CCCc1ccc(-c2ccc(=O)n(Cc3ccc(Cl)cc3)n2)cc1` [Compound 312, 2-(4-chlorobenzyl)-6-(4-propylphenyl)pyridazin-3(2H)-one] came in with an IC50 below 10 µM.

For `COc1ccc(-c2ccc(=O)n(Cc3ccc(Cl)cc3)n2)cn1` [Compound 17, 2-(4-chlorobenzyl)-6-(6-methoxypyridin-3-yl)pyridazin-3(2H)-one], the IC50 is below 10 µM.

With `O=c1ccc(-c2ccc(Cl)cc2)nn1Cc1ccc(F)cc1` [Compound 306, 6-(4-chlorophenyl)-2-(4-fluorobenzyl)pyridazin-3(2H)-one], the IC50 is below 10 µM.

Turning to `CC1(C)Cc2cc(-c3ccc(=O)n(Cc4ccc(Cl)cc4)n3)ccc2O1` [Compound 115, 2-(4-chlorobenzyl)-6-(2,2-dimethyl-2,3-dihydrobenzofuran-5-yl)pyridazin-3(2H)-one], the IC50 is above 100 µM.

In the case of `O=c1ccc(-c2ccc(OC(F)F)nc2)nn1[C@@H](CO)c1ccc(Cl)cc1` [Compound 53, (R)-2-(1-(4-chlorophenyl)-2-hydroxyethyl)-6-(6-(difluoromethoxy)pyridin-3-yl)pyridazin-3(2H)-one], the IC50 was above 100 µM.

In turn, `COc1ccc(-c2ccc(=O)n(Cc3ccccc3)n2)cc1` [Compound 211, 2-benzyl-6-(4-methoxyphenyl)pyridazin-3(2H)-one] showed an IC50 below 10 µM.

For `O=c1ccc(-c2cnc(OCC(F)(F)F)nc2)nn1Cc1cccc(F)c1` [Compound 35, 2-(3-fluorobenzyl)-6-(2-(2,2,2-trifluoroethoxy)pyrimidin-5-yl)pyridazin-3(2H)-one], the IC50 was below 10 µM.

With `O=c1ccc(-c2ccc(F)cc2)nn1Cc1cccc(C(F)(F)F)c1` [Compound 241, 6-(4-fluorophenyl)-2-(3-(trifluoromethyl)benzyl)pyridazin-3(2H)-one], the half-maximal inhibitory concentration (IC50) was above 100 µM.

`COc1ccc(Cn2nc(-c3ccc(Br)cc3)ccc2=O)cc1` [Compound 237, 6-(4-bromophenyl)-2-(4-methoxybenzyl)pyridazin-3(2H)-one] gave an IC50 below 10 µM.

For `CCOc1ccc(-c2ccc(=O)n(Cc3ccc(Cl)cc3)n2)cc1` [Compound 213, 2-(4-chlorobenzyl)-6-(4-ethoxyphenyl)pyridazin-3(2H)-one], the IC50 is below 10 µM.

Turning to `Cn1ncc2cc(-c3ccc(=O)n(Cc4ccc(Cl)cc4)n3)ccc21` [Compound 119, 2-(4-chlorobenzyl)-6-(1-methyl-1H-indazol-5-yl)pyridazin-3(2H)-one], the half-inhibitory concentration (IC50) was above 100 µM.

Regarding `CNc1ncc(-c2ccc(=O)n(Cc3ccc(Cl)cc3)n2)cn1` [Compound 12, 2-(4-chlorobenzyl)-6-(2-(methylamino)pyrimidin-5-yl)pyridazin-3(2H)-one], the IC50 was below 10 µM.

As to `COc1cc(F)ccc1-c1ccc(=O)n(Cc2ccc(Cl)cc2)n1` [Compound 316, 2-(4-chlorobenzyl)-6-(4-fluoro-2-methoxyphenyl)pyridazin-3(2H)-one], the IC50 was above 100 µM.

`CC(=O)Nc1ccc(-c2ccc(=O)n(Cc3ccc(Cl)cc3)n2)cc1` [Compound 107, N-(4-(1-(4-chlorobenzyl)-6-oxo-1,6-dihydropyridazin-3-yl)phenyl)acetamide] gave an IC50 below 10 µM.

On to `COc1ccc(Cn2nc(-c3ccc(SC)cc3)ccc2=O)cc1` [Compound 201, 2-(4-methoxybenzyl)-6-(4-(methylthio)phenyl)pyridazin-3(2H)-one], for which the IC50 is above 100 µM.

The compound `O=c1ccc(-c2cnc(N3CCCC3C(F)(F)F)nc2)nn1Cc1ccc(F)cc1F` (stereo not shown) [Compound 30, 2-(2,4-difluorobenzyl)-6-(2-(2-(trifluoromethyl)pyrrolidin-1-yl)pyrimidin-5-yl)pyridazin-3(2H)-one] gave a 50% inhibitory concentration (IC50) below 10 µM.

For `O=c1ccc(-c2cnc(OCC(F)(F)F)nc2)nn1Cc1cc(F)ccc1F` [Compound 40, 2-(2,5-difluorobenzyl)-6-(2-(2,2,2-trifluoroethoxy)pyrimidin-5-yl)pyridazin-3(2H)-one], the IC50 is below 10 µM.

For the compound `O=c1ccc(-c2ccc(OC(F)F)nc2)nn1Cc1ccc(F)c(Cl)c1` [Compound 20, 2-(3-chloro-4-fluorobenzyl)-6-(6-(difluoromethoxy)pyridin-3-yl)pyridazin-3(2H)-one], the IC50 was below 10 µM.

`O=c1ccc(-c2cnc(OCC(F)(F)F)nc2)nn1Cc1cc(Cl)ccc1O` [Compound 50, 2-(5-chloro-2-hydroxybenzyl)-6-(2-(2,2,2-trifluoroethoxy)pyrimidin-5-yl)pyridazin-3(2H)-one] came in with an IC50 below 10 µM.

Consider `N#CCOc1ccc(-c2ccc(=O)n(Cc3ccc(Cl)cc3)n2)cc1` [Compound 108, 2-(4-(1-(4-chlorobenzyl)-6-oxo-1,6-dihydropyridazin-3-yl)phenoxy)acetonitrile], for which the IC50 is below 10 µM.

Turning to `O=c1ccc(-c2cnc(OCC(F)(F)F)nc2)nn1Cc1cccc(Cl)c1` [Compound 34, 2-(3-chlorobenzyl)-6-(2-(2,2,2-trifluoroethoxy)pyrimidin-5-yl)pyridazin-3(2H)-one], the IC50 was below 10 µM.

For `O=C1CCCN1c1ncc(-c2ccc(=O)n(Cc3ccc(Cl)cc3)n2)cn1` [Compound 45, 2-(4-chlorobenzyl)-6-(2-(2-oxopyrrolidin-1-yl)pyrimidin-5-yl)pyridazin-3(2H)-one], the concentration for half-maximal inhibition (IC50) lay in the range of 10 to 100 µM.

Compound `CC1CCCN1c1ncc(-c2ccc(=O)n(Cc3ccc(F)cc3F)n2)cn1` (stereo not shown) [Compound 16, 2-(2,4-difluorobenzyl)-6-(2-(2-methylpyrrolidin-1-yl)pyrimidin-5-yl)pyridazin-3(2H)-one] gave an IC50 below 10 µM.

`O=c1ccc(-c2cnc(OCC(F)(F)F)nc2)nn1Cc1ccc(F)cc1` [Compound 37, 2-(4-fluorobenzyl)-6-(2-(2,2,2-trifluoroethoxy)pyrimidin-5-yl)pyridazin-3(2H)-one]: the IC50 was below 10 µM.

Turning to `O=c1ccc(-c2cnc(OCC3COC3)nc2)nn1Cc1ccc(Cl)cc1` [Compound 33, 2-(4-chlorobenzyl)-6-(2-(oxetan-3-ylmethoxy)pyrimidin-5-yl)pyridazin-3(2H)-one], the IC50 was below 10 µM.

On to `O=c1ccc(-c2cnc(OCC(F)(F)F)nc2)nn1Cc1ccc(F)c(F)c1` [Compound 42, 2-(3,4-difluorobenzyl)-6-(2-(2,2,2 trifluoroethoxy)pyrimidin-5-yl)pyridazin-3(2H)-one], for which the IC50 was below 10 µM.

As for `C[C@@H](c1ccccc1)n1nc(-c2ccc(Cl)cc2)ccc1=O` [Compound 315, (S)-6-(4-chlorophenyl)-2-(1-phenylethyl)pyridazin-3(2H)-one], the IC50 is above 100 µM.

The compound `O=c1ccc(-c2ccc(Cl)cc2)nn1Cc1ccccc1Cl` [Compound 310, 2-(2-chlorobenzyl)-6-(4-chlorophenyl)pyridazin-3(2H)-one] registered an IC50 below 10 µM.

As to `O=c1ccc(-c2ccc(C3CC3)cc2)nn1Cc1ccc(Cl)cc1` [Compound 104, 2-(4-chlorobenzyl)-6-(4-cyclopropylphenyl)pyridazin-3(2H)-one], the IC50 was below 10 µM.

Turning to `O=c1ccc(-c2cnc(N3CC(C(F)(F)F)C3)nc2)nn1Cc1ccc(Cl)cc1` [Compound 4, 2-(4-chlorobenzyl)-6-(2-(3-(trifluoromethyl)azetidin-1-yl)pyrimidin-5-yl)pyridazin-3(2H)-one], the IC50 is below 10 µM.

For orientation: IC50 means the point on the concentration scale where inhibition reaches its midpoint. A lower IC50 goes with greater potency in that assay.
